Measured values from US12275731B2, “Azaindole inhibitors of wild-type and mutant forms of LRRK2” (DANA-FARBER CANCER INSTITUTE, INC., priority 2018, dated 2025).

How the values were obtained:
Experiment in all cases: KinomeScan profiling
Assay type in all cases: binding
[1] = target: T1, ABL1(Q252H)-phosphorylated (Homo sapiens, UniProt P00519, Q252H); conditions: read-out: % control
T1 construct: purchased KinomeScan®
In short: (§1)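 First, compounds in DMSO are added at 1 μM to each of 468 kinase assays. Next, RLU signals are normalised between positive control (0%) and DMSO (100%). Finally, kinases under 35% are flagged active.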

GRK2 = target: T2, GRK2 (Homo sapiens, UniProt P25098); conditions: GRK2, 1 μM; read-out: % control
T2 sequence (P25098 1-689): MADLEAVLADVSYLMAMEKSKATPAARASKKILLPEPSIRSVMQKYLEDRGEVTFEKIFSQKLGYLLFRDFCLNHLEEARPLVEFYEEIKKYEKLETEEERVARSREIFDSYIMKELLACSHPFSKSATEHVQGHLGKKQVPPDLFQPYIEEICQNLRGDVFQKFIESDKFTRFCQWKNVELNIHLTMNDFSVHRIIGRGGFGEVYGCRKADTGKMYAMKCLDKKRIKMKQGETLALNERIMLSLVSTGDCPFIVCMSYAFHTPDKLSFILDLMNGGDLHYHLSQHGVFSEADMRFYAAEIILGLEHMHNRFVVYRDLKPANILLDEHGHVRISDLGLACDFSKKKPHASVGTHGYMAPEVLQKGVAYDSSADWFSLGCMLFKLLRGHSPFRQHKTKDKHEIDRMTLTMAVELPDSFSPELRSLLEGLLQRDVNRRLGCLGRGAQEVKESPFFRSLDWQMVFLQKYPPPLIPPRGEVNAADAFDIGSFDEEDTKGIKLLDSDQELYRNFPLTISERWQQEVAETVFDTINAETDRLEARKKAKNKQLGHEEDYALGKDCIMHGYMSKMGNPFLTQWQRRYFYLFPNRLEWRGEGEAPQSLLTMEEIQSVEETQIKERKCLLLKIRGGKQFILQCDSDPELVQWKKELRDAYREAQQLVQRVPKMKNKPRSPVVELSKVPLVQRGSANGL
In short: as §1

YSK4 = target: T3, YSK4 (Homo sapiens, UniProt Q56UN5); conditions: YSK4, 1 μM; read-out: % control
T3 sequence (Q56UN5 1-1328): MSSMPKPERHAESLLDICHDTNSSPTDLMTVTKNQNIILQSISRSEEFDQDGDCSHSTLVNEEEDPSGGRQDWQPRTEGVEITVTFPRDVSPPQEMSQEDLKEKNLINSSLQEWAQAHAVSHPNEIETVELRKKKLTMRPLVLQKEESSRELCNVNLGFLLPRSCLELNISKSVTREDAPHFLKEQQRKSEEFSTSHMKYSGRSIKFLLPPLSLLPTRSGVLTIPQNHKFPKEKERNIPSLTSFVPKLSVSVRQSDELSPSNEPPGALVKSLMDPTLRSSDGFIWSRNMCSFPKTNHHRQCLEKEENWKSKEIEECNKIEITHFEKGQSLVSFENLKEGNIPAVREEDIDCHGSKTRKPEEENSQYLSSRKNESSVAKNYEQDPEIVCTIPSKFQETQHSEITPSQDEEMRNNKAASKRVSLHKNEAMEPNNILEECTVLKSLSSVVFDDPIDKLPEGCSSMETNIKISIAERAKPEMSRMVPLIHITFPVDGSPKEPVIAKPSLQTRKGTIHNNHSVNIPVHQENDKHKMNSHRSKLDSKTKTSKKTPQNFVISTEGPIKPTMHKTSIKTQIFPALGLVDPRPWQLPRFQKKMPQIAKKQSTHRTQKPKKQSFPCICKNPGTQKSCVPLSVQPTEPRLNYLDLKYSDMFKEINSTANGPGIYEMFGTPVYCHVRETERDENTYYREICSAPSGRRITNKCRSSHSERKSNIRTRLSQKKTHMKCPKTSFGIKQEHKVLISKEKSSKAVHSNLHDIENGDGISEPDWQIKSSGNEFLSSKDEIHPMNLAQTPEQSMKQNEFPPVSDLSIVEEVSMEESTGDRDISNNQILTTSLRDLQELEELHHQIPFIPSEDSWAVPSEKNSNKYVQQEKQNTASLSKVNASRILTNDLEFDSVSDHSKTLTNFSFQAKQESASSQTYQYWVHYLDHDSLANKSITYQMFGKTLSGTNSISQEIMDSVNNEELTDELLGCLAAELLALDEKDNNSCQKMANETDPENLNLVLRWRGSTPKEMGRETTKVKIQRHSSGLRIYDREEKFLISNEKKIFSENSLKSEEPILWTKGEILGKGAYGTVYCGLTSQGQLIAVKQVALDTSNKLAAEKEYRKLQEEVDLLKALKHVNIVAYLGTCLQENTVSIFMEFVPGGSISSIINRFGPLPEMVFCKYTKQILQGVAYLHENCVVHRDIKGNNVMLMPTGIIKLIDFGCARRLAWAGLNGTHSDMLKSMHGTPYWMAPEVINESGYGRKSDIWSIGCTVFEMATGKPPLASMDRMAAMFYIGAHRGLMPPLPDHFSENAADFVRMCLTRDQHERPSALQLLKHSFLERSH
In short: as §1

## CNc1c(-c2cnn([C@H]3CCN(C(C)=O)C[C@@H]3F)c2)cnc2[nH]cc(Cl)c12 [Compound 77, 1-((3S,4S)-4-(4-(3-chloro-4-(methylamino)-1H-pyrrolo[2,3-b]pyridin-5-yl)-1H-pyrazol-1-yl)-3-fluoropiperidin-1-yl)ethan-1-one]
[1]
  remaining binding at 1 µM: 95%
GRK2
  remaining binding at 1 µM: 93%
YSK4
  remaining binding at 1 µM: 2.6%

## CNc1c(-c2ccc(C(=O)N3CCC(N4CCOCC4)CC3)cc2)cnc2[nH]cc(Cl)c12 [Compound 96, (4-(3-chloro-4-(methylamino)-1H-pyrrolo[2,3-b]pyridin-5-yl)phenyl)(4-morpholinopiperidin-1-yl)methanone]
[1]
  remaining binding at 1 µM: 100%
GRK2
  remaining binding at 1 µM: 94%
YSK4
  remaining binding at 1 µM: 2.2%

## O=C(c1ccc(-c2cnc3[nH]cc(Cl)c3c2NC2CCCC2)cc1)N1CCC(N2CCOCC2)CC1 [Compound 101, (4-(3-chloro-4-(cyclopentylamino)-1H-pyrrolo[2,3-b]pyridin-5-yl)phenyl)(4-morpholinopiperidin-1-yl)methanone]
[1]
  remaining binding at 1 µM: 100%
GRK2
  remaining binding at 1 µM: 100%
YSK4
  remaining binding at 1 µM: 63%
